Source: PMC8587101, “Design and Synthesis of Novel Betulin Derivatives Containing Thio-/Semicarbazone Moieties as Apoptotic Inducers through Mitochindria-Related Pathways” (Molecules, 2021)
“And” between values parts separate entries of the source, which are not always exact repeats. Equal values may be shown once. “Also recorded” adds a separate entry of the source. Read-outs that look alike come from different tables or passages of the source.

What was measured:
[1] = test system: human breast carcinoma cells (MCF-7); test: MTT cytotoxicity assay, MCF-7; assay type: cell-based; conditions: for IC50: MTT, 48 h, means ± SD of three experiments, read-out: IC50 (μM) MCF-7
[2] = test system: normal human gastric epithelial cells (GES-1); test: MTT cytotoxicity assay, GES-1 normal cells; assay type: cell-based; conditions: GES1, MTT, 48 h, normal cells, means ± SD of three experiments, “-” not active, read-out: IC50 (μM) GES-1
MCF-7 cells [3] = test: ROS level assay, H2DCFDA, flow cytometry; assay type: cell-based, human; conditions: MCF-7, 12 μM, 24 h; control group 2.61%
Method: In the past years, many studies reported that intracellular amounts of reactive oxygen species (ROS) play an important role in some kinds of biological processes in tumor cells. […] Therefore, we explored if ROS stimulated by compound 8f induced apoptosis in MCF-7 cells. Cells were treated with compound 8f by gradient concentration (0, 3, 6 and 12 μM) for 24 h and then using H2DCFDA staining analysis by flow cytometry.
MCF-7 cells were cultured into 12-well plate at a concentration of 1 × 10^6 cells/well for 24 h of the RPMI-1640 medium with 10% FBS. Then, cells were co-cultured with compound 8f (0, 3, 6 and 12 µM) for 24 h. Then, the MCF-7 cells were stained with 5 µM H2DCFDA solution (400 µL/well) at room temperature in the dark for 30 min. The cells were harvested and washed with PBS twice according to the manufacturer’s instructions (Thermo Fisher Scientific, Waltham, MA, USA). The results were obtained by flow cytometry.

[4] = test system: human colorectal cells (HCT-116); test: MTT cytotoxicity assay, HCT-116; assay type: cell-based; conditions: HCT-116, MTT, 48 h, means ± SD of three experiments, read-out: IC50 (μM) HCT-116
MCF-7 cells [5] = test: AO/EB staining, fluorescence microscope; assay type: cell-based, human; conditions: MCF-7, 0, 3, 6 and 12 μM, 24 h
Method: Firstly, the Acridine Orange/Ethidium Bromide (AO/EB) staining of MCF-7 cells treated with compound 8f was observed under a fluorescence microscope. A large number of normal cells in the control group were stained green and their nuclei were intact.
The MCF-7 cells in the logarithmic growth phase were cultured into 6-well plates (5 × 10^4 cells/mL). The cells incubated for overnight at 37 °C in an atmosphere of 5% CO2. Then the MCF-7 cells were treated with compound 8f (0, 3, 6 and 12 μM) for 24 h. The cover slip with monolayer MCF-7 cells was inverted on the glass slide with 20 μL of AO/BE stain (100 μg/mL). The fluorescence intensity was read using a fluorescence microscope (Zeiss, Oberserve A1, Oberkochen, Germany).

MCF-7 cells [6] = test: Mitochondrial membrane potential (MMP) assay, JC-1, flow cytometry; assay type: cell-based, human; conditions: 24 h
Method: Mitochondria dysfunction has been proven to be an important role in inducing apoptosis in tumor cells. The loss of mitochondrial membrane potential (MMP) has been considered to be an early manifestation of mitochondrial dysfunction in apoptotic process. Thus, we tried to explore the contribution of mitochondria in compound-8f-induced apoptosis in MCF-7 cells. JC-1 cationic dye is an ideal MMP-sensitive probe, which can measure the MMP lost by flow cytometry.
MCF-7 cells were cultured into 12-well plates at a concentration of 1 × 10^6 cells/well of the RPMI-1640 medium. Then, cells were co-cultured with compound 8f (0, 3, 6 and 12 µM) for 24 h. After treatment, cells were stained with 3 µM cationic dye JC-1 at room temperature in the dark for 30 min according to the manufacturer’s instructions (BD Biosciences, San Jose, CA, USA). Finally, cells were harvested and washed with PBS twice, and then the results were recorded by flow cytometry analysis.

[7] = test system: human lung carcinoma cells (A549); test: MTT cytotoxicity assay, A549; assay type: cell-based; conditions: A549, MTT, 48 h, means ± SD of three experiments, read-out: IC50 (μM) A549
MCF-7 cells [8] = test: Western blot of apoptosis-related proteins; assay type: cell-based, human; conditions: MCF-7, 3, 6 and 12 µM, 24 h, GAPDH internal control
Method: To further explore the molecular mechanism of compound-8f-induced apoptosis in MCF-7 cells, the expression levels of the related apoptotic proteins Bcl-2, Bax, P53, caspase-3, caspase-9, cleaved caspase-3, cleaved caspase-9 and cytochrome c under treatment of compound 8f were carried out. MCF-7 cells were co-cultured with compound 8f at the gradient concentrations of 3, 6 and 12 µM for 24 h, and the related apoptotic proteins expression levels were tested by means of Western blotting. The GAPDH expression level was used as an internal control group. […] Meanwhile, the cleavage forms of the caspase proteins were evaluated (Figure 10). Compound 8f could also activated the expression levels of both cleaved caspase-3 and cleaved caspase-9 in a dose-dependent manner.
After treatment with compound 8f (0, 3, 6 and 12 µM), MCF-7 cells were harvested and lysed in RIPA buffer and boiled for 10 min at 100 °C. Equal amount of protein ([…]) were separated on a 10% SDS-PAGE gel and transferred to nitrocellulose membranes. The membranes were blocked with 5% BSA and probed with a 1:1000 dilution of primary antibody against Cl-caspase-3 (Cell Singaling Technology, Inc., Danvers, MA, USA), Cl-caspase-9 (Cell Singaling Technology Inc), P53 (Cell Singaling Technology, Inc; Danvers, MA, USA), Bcl-2 (Santa Cruz Biotechnology, Inc; Santa Cruz, CA, USA), Cytochrome c (Proteintech Group, Inc; Rosemont, IL, USA) and Bax (Proteintech Group, Inc; Rosemont, IL, USA). Then, the membranes were incubated with a 1:5000 dilution of horseradish peroxidase-conjugated secondary antibody for 2 h. Positive bands were visualized on a X-ray film using an enhanced chemiluminescence system (Kodak).

MCF-7 cells [9] = test: Annexin V-FITC/PI apoptosis analysis by flow cytometry; assay type: cell-based, human; conditions: 24 h, control 10.54%
Method: In order to confirm whether tumor cell apoptosis was induced by compound 8f in tumor cells, the MCF-7 cells were stained in sequence with Annexin V-FITC (AV) and propidium iodide (PI). MCF-7 cells deal with compound 8f by gradient concentration (0, 3, 6 and 12 μM) for 24 h, and the rates of apoptotic cells were detected by flow cytometry.
Apoptosis was determined by staining cells with an Annexin VFITC/PI detection kit (BD Biosciences, San Jose, CA, USA). Briefly, MCF-7 cells were seeded on six-well plates (6 × 10^4 cells/mL) and incubated with compound 8f (0, 3, 6 and 12 μM) for 24 h. Cells were washed twice with cold PBS and resuspended in 500 μL of 1 × binding buffer, and then 10 μL of Annexin V-FITC and 5 μL of PI were applied to stain the cells for 15 min at room temperature in the dark. The status of stained cells was analyzed using a flow cytometer (BD, FACSCalibur, San Jose, CA, USA).

**Q.** With C=C(C)[C@@H]1CC[C@]2(/C=N/NC(=S)Nc3cccc(Cl)c3)CC[C@]3(C)[C@H](CC[C@@H]4[C@@]5(C)CC[C@H](O)C(C)(C)[C@@H]5CC[C@]43C)[C@@H]12 [Compound 8f, Lup-20(29)-ene-3β-ol-28-N-(3-chlorophenyl)thiosemicarbazide] as the molecule, how does the IC50 ([1]; Homo sapiens, MCF7, 48 h) read?
**A.** < 10 µM

**Q.** And the “fold more potent than betulin” value ([1]; MCF-7, ratio of IC50 values)?
**A.** 3.32 fold

**Q.** And the IC50 [1]?
**A.** 5.96 µM and 5.86 µM

**Q.** What about the IC50 [2] of the same molecule?
**A.** 215 ± 6.28 µM

**Q.** And the “generation of ROS level” value (MCF-7 cells [3])?
**A.** 75.22%

**Q.** What about the IC50 [4] of the same molecule?
**A.** 24.7 ± 0.9 µM

**Q.** What about the “AO/EB staining, cell morphology” value (MCF-7 cells [5]) of the same molecule?
**A.** some cells showed apoptotic characteristics

**Q.** What about the “JC-1 fluorescence intensity (upper quadrant)” value (MCF-7 cells [6]; MCF-7, 3 μM) of the same molecule?
**A.** 79.00%

**Q.** And the “JC-1 fluorescence intensity (upper quadrant)” value (MCF-7 cells [6]; MCF-7, 12 μM)?
**A.** 47.06%

**Q.** And the IC50 [7]?
**A.** 10.4 ± 0.74 µM

**Q.** What about the “expression level of Bax” value (MCF-7 cells [8]) of the same molecule?
**A.** upregulation; also recorded: increased

**Q.** And the “expression level of Bcl-2” value (MCF-7 cells [8])?
**A.** downregulation; also recorded: suppressed

**Q.** And the “expression level of P53” value (MCF-7 cells [8])?
**A.** upregulation; also recorded: increased

**Q.** And the “expression level of caspase-3” value (MCF-7 cells [8])?
**A.** activation; also recorded: activated

**Q.** What about the “expression level of caspase-9” value (MCF-7 cells [8]) of the same molecule?
**A.** activation; also recorded: activated

**Q.** And the “expression level of cleaved caspase-3” value (MCF-7 cells [8])?
**A.** activation; also recorded: activated

**Q.** What about the “expression level of cleaved caspase-9” value (MCF-7 cells [8]) of the same molecule?
**A.** activation; also recorded: activated

**Q.** And the “expression level of cytochrome c (cyt-c)” value (MCF-7 cells [8])?
**A.** upregulation; also recorded: increased

**Q.** And the “percentage of apoptosis cells” value (MCF-7 cells [9]; MCF-7, 3 μM)?
**A.** 13.20%

**Q.** What about the “percentage of apoptosis cells” value (MCF-7 cells [9]; MCF-7, 12 μM) of the same molecule?
**A.** 48.66%
